Measured values reported in patent US8455665B2, “3-phenoxymethylpyrrolidine compounds” (Theravance, Inc., priority 2009, dated 2013).

Tests used:
Design in all cases: expressed in transfected cells; host or cells: HEK-293
SERT [1] = target: T1, SERT (Homo sapiens, UniProt P31645); test: hSERT membrane radioligand binding assay (3H-citalopram); details: hSERT membranes (HEK-293), 1.0 nM 3H-citalopram; for Ki: read-out: SERT pKi (converted)
Description: (§1) Membrane radioligand binding assays were used to measure inhibition of labeled ligand (^3H-citalopram or ^3H-nisoxetine or ^3H-WIN35428) binding to membranes prepared from cells expressing the respective human recombinant transporter (hSERT or hNET or hDAT) in order to determine the pKi values of test compounds at the transporters.
(§2) Recombinant human embryonic kidney (HEK-293) derived cell lines stably transfected with hSERT or hNET, respectively, were grown in DMEM medium supplemented with 10% dialyzed FBS (for hSERT) or FBS (for hNET), 100 μg/ml penicillin, 100 μg/ml streptomycin, 2 mM L-glutamine and 250 μg/ml of the aminoglycoside antibiotic G418, in a 5% CO2 humidified incubator at 37° C. When cultures reached 80% confluence, the cells were washed thoroughly in PBS (without Ca^2+ and Mg^2+) and lifted with 5 mM EDTA in PBS. Cells were pelleted by centrifugation, resuspended in lysis buffer (10 mM Tris-HCl, pH7.5 containing 1 mM EDTA), homogenized, pelleted by centrifugation, then resuspended in 50 mM Tris-HCl, pH 7.5 and 10% sucrose at 4° C. Protein concentration of the membrane suspension was determined using a Bio-Rad Bradford Protein Assay kit. Membranes were snap frozen and stored at −80° C. Chinese hamster ovary membranes expressing hDAT (CHO-DAT) were purchased from PerkinElmer and stored at −80° C.
(§3) Binding assays were performed in a 96-well assay plate in a total volume of 200 μl assay buffer (50 mM Tris-HCl, 120 mM NaCl, 5 mM KCl, pH 7.4) with 0.5, 1, and 3 μg membrane protein, for SERT, NET and DAT, respectively.
(§4) Stock solutions (10 mM in DMSO) of test compound were prepared and serial dilutions made using Dilution Buffer (50 mM Tris-HCl, 120 mM NaCl, 5 mM KCl, pH 7.4, 0.1% BSA, 400 μM ascorbic acid). Non-specific radioligand binding was determined in the presence of 1 μM duloxetine, 1 μM desipramine or 10 μM GBR12909 (each in Dilution Buffer) for the hSERT, hNET or hDAT assays, respectively.
(§5) Following a 60 minute incubation at 22° C. (or a period sufficient to reach equilibrium), the membranes were harvested by rapid filtration over a 96-well UniFilter GF/B plate, pretreated with 0.3% polyethyleneimine, and washed 6 times with […] (50 mM Tris-HCl, 0.9% NaCl, pH 7.5 at 4° C.). Plates were dried overnight at room temperature, approximately […] of MicroScint™-20 (Perkin Elmer) added and bound radioactivity quantitated via liquid scintillation spectroscopy. Inhibition curves and saturation isotherms were analyzed using GraphPad Prism Software package (GraphPad Software, Inc., San Diego, Calif.). IC50 values were generated from concentration response curves using the Sigmoidal Dose Response (variable slope) algorithm in Prism GraphPad. Kd and Bmax values for the radioligand were generated from saturation isotherms using the Saturation Binding Global Fit algorithm in Prism GraphPad. pKi (negative decadic logarithm of Ki) values for test compounds were calculated from the best-fit IC50 values, and the Kd value of the radioligand, using the Cheng-Prusoff equation (Cheng & Prusoff (1973) Biochem. Pharmacol. 22(23):3099-3108): Ki=IC50/(1+[L]/Kd), where [L]=concentration radioligand.

NET [2] = target: T2, NET (Homo sapiens, UniProt P23975); test: hNET neurotransmitter uptake assay (3H-NE); assay type: cell-based; details: norepinephrine reuptake inhibition, HEK-293 hNET cells, 3H-NE (no asterisk); for IC50: read-out: NET pIC50 (converted)
T2 sequence (P23975 whole entry): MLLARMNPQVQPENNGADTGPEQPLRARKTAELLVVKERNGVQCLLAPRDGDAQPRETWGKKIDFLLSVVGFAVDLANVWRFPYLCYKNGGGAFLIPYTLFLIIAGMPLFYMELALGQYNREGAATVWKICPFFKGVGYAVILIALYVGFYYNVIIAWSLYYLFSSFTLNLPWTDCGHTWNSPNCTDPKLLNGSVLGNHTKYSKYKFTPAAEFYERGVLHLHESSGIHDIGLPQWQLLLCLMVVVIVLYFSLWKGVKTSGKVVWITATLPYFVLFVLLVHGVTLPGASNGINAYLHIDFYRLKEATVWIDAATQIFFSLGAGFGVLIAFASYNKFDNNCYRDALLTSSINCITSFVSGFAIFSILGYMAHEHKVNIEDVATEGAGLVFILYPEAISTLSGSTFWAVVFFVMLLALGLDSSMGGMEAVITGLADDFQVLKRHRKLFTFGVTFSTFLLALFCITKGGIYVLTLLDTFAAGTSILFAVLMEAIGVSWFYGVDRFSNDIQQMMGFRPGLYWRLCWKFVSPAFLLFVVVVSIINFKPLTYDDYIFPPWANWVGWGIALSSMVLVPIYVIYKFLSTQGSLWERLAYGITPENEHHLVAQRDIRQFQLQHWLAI
Description: (§6) Neurotransmitter uptake assays were used to measure inhibition of ^3H-serotonin (^3H-5-HT), ^3H-norepinephrine (^3H-NE), and ^3H-dopamine (^3H-DA) uptake into cells expressing the respective transporter (hSERT, hNET or hDAT) in order to determine the pIC50 values of test compounds at the transporters.
(§7) HEK-293 derived cell lines stably-transfected with hSERT, hNET, or hDAT, respectively, were grown in DMEM medium supplemented with 10% dialyzed FBS (for hSERT) or FBS (for hNET and hDAT), 100 μg/ml penicillin, 100 μg/ml streptomycin, 2 mM L-glutamine and 250 μg/ml of the aminoglycoside antibiotic G418 (for hSERT and hNET) or 800 ug/ml (for hDAT), in a 5% CO2 humidified incubator at 37° C. When cultures reached 80% confluence, the cells were washed thoroughly in PBS (without Ca^2+ and Mg^2+) and lifted with 5 mM EDTA in PBS. Cells were harvested by centrifugation at 1100 rpm for 5 minutes, washed once by resuspension in PBS, then centrifuged. The supernatant was discarded and the cell pellet resuspended, by gentle trituration, in room temperature Krebs-Ringer bicarbonate buffer containing HEPES (10 mM), CaCl2 (2.2 mM), ascorbic acid (200 μM) and pargyline (200 μM), pH 7.4. The final concentration of cells in the cell suspension was 7.5×10^4 cells/ml, 1.25×10^5 cells/ml, and 5.0×10^4 cells/ml for SERT, NET, and DAT cell lines, respectively.
(§8) Neurotransmitter uptake assays were performed in a 96-well assay plate in a total volume of 400 μl assay buffer (Krebs-Ringer bicarbonate buffer containing HEPES (10 mM), CaCl2 (2.2 mM), ascorbic acid (200 μM) and pargyline (200 μM), pH 7.4) with 1.5×10^4 and 2.5×10^4 cells, for SERT, NET, and DAT, respectively. […] Stock solutions (10 mM in DMSO) of test compound were prepared and serial dilutions prepared using 50 mM Tris-HCl, 120 mM NaCl, 5 mM KCl, pH 7.4, 0.1% BSA, 400 μM ascorbic acid. Test compounds were incubated for 30 minutes at 37° C. with the respective cells, prior to addition of radiolabeled neurotransmitter, ^3H-5-HT (20 nM final concentration), ^3H-NE (50 nM final concentration) or ^3H-DA (100 nM final concentration). Non-specific neurotransmitter uptake was determined in the presence of 2.5 μM duloxetine, 2.5 μM desipramine, or 10 uM GBR-12909 (each in Dilution Buffer) for the hSERT, hNET, or hDAT assays, respectively.
(§9) Following a 10 minute incubation, at 37° C., with radioligand, the cells were harvested by rapid filtration over a 96-well UniFilter GF/B plate, pretreated with 1% BSA, and washed 6 times with 650 μl wash buffer (ice cold PBS). Plates were dried overnight at 37° C., ˜45 μl of MicroScint™-20 (Perkin Elmer) added and incorporated radioactivity quantitated via liquid scintillation spectroscopy Inhibition curves were analyzed using GraphPad Prism Software package (GraphPad Software, Inc., San Diego, Calif.). IC50 values were generated from concentration response curves using the Sigmoidal Dose Response (variable slope) algorithm in Prism GraphPad.

NET [3] = target: T2, NET; test: hNET membrane radioligand binding assay (3H-nisoxetine); details: hNET membranes (HEK-293), 1.0 nM 3H-nisoxetine; for Ki: read-out: NET pKi (converted)
Description: as §1, §2, §3, §4, §5

SERT [4] = target: T1, SERT; test: hSERT neurotransmitter uptake assay (3H-5-HT); assay type: cell-based; details: serotonin reuptake inhibition, HEK-293 hSERT cells, 3H-5-HT (no asterisk); for IC50: read-out: SERT pIC50 (converted)
Description: as §6, §7, §8, §9

T1 sequence (P31645 whole entry): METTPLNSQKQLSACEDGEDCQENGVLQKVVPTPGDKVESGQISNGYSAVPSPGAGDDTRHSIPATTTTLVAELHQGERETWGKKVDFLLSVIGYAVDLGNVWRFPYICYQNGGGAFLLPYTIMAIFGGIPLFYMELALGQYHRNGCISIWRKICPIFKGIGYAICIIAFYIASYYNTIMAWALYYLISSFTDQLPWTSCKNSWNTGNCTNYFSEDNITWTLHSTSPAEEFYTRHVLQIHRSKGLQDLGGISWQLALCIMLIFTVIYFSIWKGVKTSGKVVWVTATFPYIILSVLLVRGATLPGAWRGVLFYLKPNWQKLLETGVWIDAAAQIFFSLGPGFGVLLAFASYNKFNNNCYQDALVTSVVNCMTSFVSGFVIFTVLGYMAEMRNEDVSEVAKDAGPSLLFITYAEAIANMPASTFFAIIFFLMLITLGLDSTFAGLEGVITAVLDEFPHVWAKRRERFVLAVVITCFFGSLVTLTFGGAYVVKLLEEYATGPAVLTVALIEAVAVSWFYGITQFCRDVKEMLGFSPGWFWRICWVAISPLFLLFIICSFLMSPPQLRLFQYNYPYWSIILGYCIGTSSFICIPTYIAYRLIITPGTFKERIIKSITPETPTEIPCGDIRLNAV

SMILES	Ki (SERT [1]) [nM]	IC50 (NET [2]) [nM]	Ki (NET [3]) [nM]	IC50 (SERT [4]) [nM]	SERT pKi (SERT [1])	NET pIC50 (NET [2])	NET pKi (NET [3])	SERT pIC50 (SERT [4])
COC[C@@H](Oc1ccc(Cl)cc1Cl)[C@H]1CCNC1 [Example 4-23, (S)-3-[(S)-1-(2,4-Dichlorophenoxy)-2-methoxyethyl]pyrrolidine]	≤ 10	≤ 100	≤ 100	≤ 10				
COC[C@@H](Oc1cccc(Cl)c1C(F)(F)F)[C@H]1CCNC1 [Example 4-20, (S)-3-[(S)-1-(3-Chloro-2-trifluoromethylphenoxy)-2-methoxyethyl]pyrrolidine]	≤ 10	≤ 10	≤ 10	≤ 100				
COC[C@@H](Oc1cccc(Cl)c1Cl)[C@H]1CCNC1 [Example 4-9, (S)-3-[(S)-1-(2,3-Dichlorophenoxy)-2-methoxyethyl]pyrrolidine]	≤ 10	≤ 10	≤ 10	≤ 10				
COC[C@H](Oc1cccc(Cl)c1Cl)[C@H]1CCNC1 [Example 4-10]					≧8.0	≧8.0	≧8.0	≧8.0
COC[C@H](Oc1cccc(Cl)c1C)[C@H]1CCNC1 [Example 4-16, (S)-3-[(R)-1-(3-Chloro-2-methylphenoxy)-2-methoxyethyl]pyrrolidine]	≤ 10	≤ 10	≤ 10	≤ 10				
CCOC[C@H](Oc1cccc2ccccc12)[C@H]1CCNC1 [Example 11, (S)-3-[(R)-2-Ethoxy-1-(naphthalen-1-yloxy)ethyl]pyrrolidine]		≤ 10		≤ 10				
OC[C@@H](Oc1ccc(Cl)cc1Cl)[C@@H]1CCNC1 (stereo in doubt) [Example 2-1, (R)-2-(2,4-Dichlorophenoxy)-2-(S)-pyrrolidin-3-yl-ethanol]		≤ 100		≤ 100				

Further lines, with some results ahead:

Ki (SERT [1]) [nM]	IC50 (NET [2]) [nM]	Ki (NET [3]) [nM]	IC50 (SERT [4]) [nM]	SMILES	SERT pKi (SERT [1])	NET pIC50 (NET [2])	NET pKi (NET [3])	SERT pIC50 (SERT [4])
≤ 10	≤ 10	≤ 10	≤ 100	Fc1cccc(O[C@@H](C2CCOCC2)[C@H]2CCNC2)c1Cl [Example 13-14, (S)-3-[(S)-(2-Chloro-3-fluorophenoxy)(tetrahydropyran-4-yl)methyl]pyrrolidine]				
≤ 100	≤ 10	≤ 10	≤ 1000	Clc1ccccc1O[C@@H](C1CCOCC1)[C@H]1CCNC1 [Example 13-1, (S)-3-[(S)-(2-Chlorophenoxy)(tetrahydropyran-4-yl)methyl]pyrrolidine]				
≤ 10	≤ 10	≤ 10	≤ 10	Fc1cccc(O[C@@H](C2CCOCC2)[C@@H]2CCNC2)c1Cl [Example 13-17, (R)-3-[(S)-(2-Chloro-3-fluorophenoxy)(tetrahydropyran-4-yl)methyl]pyrrolidine]				
≤ 10	≤ 10	≤ 10	≤ 10	Clc1cccc(Cl)c1O[C@@H](C1CCOCC1)[C@H]1CCNC1 [Example 13-24, (S)-3-[(S)-(2,6-Dichlorophenoxy)(tetrahydropyran-4-yl)methyl]pyrrolidine]				
≤ 10	≤ 10	≤ 10	≤ 100	Clc1cccc(O[C@H](C2CCOCC2)[C@@H]2CCNC2)c1Cl [Example 13-13, (R)-3-[(R)-(2,3-Dichlorophenoxy)(tetrahydropyran-4-yl)methyl]pyrrolidine]				
≤ 100	≤ 10	≤ 10	≤ 100	Clc1ccc(O[C@@H](C2CCOCC2)[C@H]2CCNC2)c(Cl)c1 [Example 13-22, (S)-3-[(S)-(2,4-Dichlorophenoxy)(tetrahydropyran-4-yl)methyl]pyrrolidine]				
≤ 10	≤ 100	≤ 100	≤ 100	Clc1ccccc1O[C@H](C1CCOCC1)[C@H]1CCNC1 [Example 13-4, (S)-3-[(R)-(2-Chlorophenoxy)(tetrahydropyran-4-yl)methyl]pyrrolidine]				
≤ 10	≤ 10	≤ 10	≤ 10	Clc1cccc(O[C@H](C2CCOCC2)[C@H]2CCNC2)c1Cl [Example 13-12, (S)-3-[(R)-(2,3-Dichlorophenoxy)(tetrahydropyran-4-yl)methyl]pyrrolidine]				
≤ 10	≤ 10	≤ 10	≤ 10	Fc1cccc(O[C@H](C2CCOCC2)[C@H]2CCNC2)c1Cl [Example 13-15, (S)-3-[(R)-(2-Chloro-3-fluorophenoxy)(tetrahydropyran-4-yl)methyl]pyrrolidine]				
